In patent US20200001302A1, “MICROFLUIDIC DEVICES, SYSTEMS, INFRASTRUCTURES, USES THEREOF AND METHODS FOR GENETIC ENGINEERING USING SAME” (VALORBEC, SOCIÉTÉ EN COMMANDITE, priority 2018, published 2020):
Counter-ions that a name gives are not always drawn. Like-named read-outs stand apart in the source and are kept apart here.

Key:
[1] = tested on: H1299 cells; experiment: Cell viability over 7 days after RAF1 gene editing and sorafenib tosylate (FIG. 50); format: cell-based, Human; conditions: cells with both pCRISPR targeting RAF1 and 15 micromolar sorafenib tosylate added on day 2; after day 4
Protocol: MAPK/ERK pathway experiments. The MAPK/ERK pathway experiments used two key components: CRISPR-Cas9 genomic disruption of Raf1 and drug inhibition using sorafenib tosylate. In the macroscale, 0.75×10^5 cells/mL of H1299 cells were seeded on day 0 in 24-well plates. 600 ng of the pCRISPR plasmid targeting eGFP (control) or RAF1 was applied to the wells containing the cells on day 1. On day 3, drug conditions were added at different concentrations: 0 micromolar, 7.5 micromolar, 15 micromolar, 30 micromolar, 60 micromolar, 120 micromolar which were diluted in complete media. On day 5, 5 micromolar Calcein-AM violet stain (λex, lambda(ex)=408 nm and λem, lambda(em)=450 nm) diluted in 250 microliters fresh serum-free media was added to the cells and incubated at 37° C. for 30 min. The viability of cells was assessed by performing a fluorescence well scan using the CLARIOStar well-plate reader. The measured fluorescence was normalized to the control to determine the percent viability.
To assess the coupled effects of genome editing and drug inhibition, the H1299 cells with a pCRISPR targeting RAF1 or a control sgRNA were transfected and 15 micromolar sorafenib tosylate was added on day 2. […]
Four conditions were tested by acquiring fluorescent measurements over 7 days to assess proliferation. […] All readings were taken in triplicate and error bars represent +/−1 s.d.

[2] = tested on: H1299 cells; experiment: On-chip (ACE digital microfluidic) sorafenib dose-response, cell viability by Calcein-AM cell count; format: cell-based, Human; conditions: for IC50: Homo sapiens
Description: Similarly, in the microscale, the transfection protocol is followed for seeding cells and the 7-step protocol for transfection of the pCRISPR plasmid containing sgRNA targeting eGFP or Raf-1. The standard step 7 was replaced with step 7a and step 7b. In step 7a, sorafenib tosylate in complete media was actively dispensed into unit droplets and then diluted in liquid media to form six different concentrations (0 micromolar, 7.5 micromolar, 15 micromolar, 30 micromolar, 60 micromolar, 120 micromolar) of which one droplet (0.7 microliters) was used to passively dispense onto each hydrophilic spot and the other droplet was saved for future dilutions. After all cells were interrogated with the drugs, they were incubated for two days. In step 7b, six unit droplets of 5 micromolar Calcein-AM violet stain were passively dispensed to the cells and incubated for 30 min in which images were taken to count the cells using a single module imaging pipeline. Calcein-stained image was smoothed with a Gaussian filter (G, sigma=1) and used the Otsu Global thresholding method to detect objects with diameters of 20-100 pixel units (two classes, threshold correction factor=1.25). Neighboring pixels are grouped into objects and undesired clumped objects (e.g., two close overlapping objects) are declumped using intensity segregation. The counted cells were normalized to the control (e.g., cell interrogated with no drugs). All curves were fit with a sigmoid function and probed for statistical significance using an F-test in the linear region.
To verify the effects of targeting RAF1 by genome editing and enzymatic inhibition, H1299 cells were cultured, edited, assayed, and analyzed on the ACE platform following procedures for measuring transfection and knockout efficiencies. Images of the lung cancer cells that are transfected with and without pCRISPR targeting RAF1 and treated with the sorafenib inhibitor are analysed using the standardized imaging pipeline (FIG. 39B, FIG. 51). […] The effects of RAF protein kinase inhibitor sorafenib tosylate with and without CRISPR-mediated RAF1 targeting were examined.

[3] = tested on: RFP gene downstream of a T7 promoter in E. coli; experiment: IPTG inducer concentration optimization, RFP expression dose-response (AIMS and macro-scale); format: cell-based; conditions: after four hours
Protocol: For inducer concentration optimization carried out in the macroscale, starter cultures with a RFP plasmid were prepared at OD 0.1 from overnight inoculations. The cultures were grown at 37° C. with shaking and were induced upon reaching OD 0.4. 45 mL of the culture was induced at 200 micromolar and diluted with fresh media to generate the following IPTG concentrations: 200, 133.3, 88.9, 59.3, 40, 26.7, 17.8, and 11.9 micromolar. These sub-cultures were prepared in triplicates along with a non-induced control and were induced at 37° C. and shaken for 4 hours. After induction, 200 microliters of each culture were loaded onto a 96-well plate and fluorescence at 612 nm was measured with 582 nm excitation on a TECAN Infinite M200 plate reader (Mannedorf, Switzerland) with the settings: gain of 75, 25 flashes and 20 microseconds integration time. The fluorescence intensity with increasing IPTG concentration was plotted on a logarithmic scale to generate a dose-response curve.
In the inducer concentration optimization program, three unit droplets of 1.42 microliters containing transformed RFP-cells were dispensed from the culture region and mixed with 0.3 microliters of 3.24 mM IPTG. This droplet was actuated to an empty reservoir and one daughter droplet was split from this reservoir and actuated to the incubation region. […]

[4] = BGL off-chip assay in well plate, absorbance at 405 nm; format: biochemical, Thermobaculum terrenum; conditions: well-plate reader
Protocol: Referring to FIG. 16, there is shown off-chip enzymatic assay with an absorbance readout as a function of time were collected every 30 min. Nine reactions containing equal volume of lysate with enzyme and substrate were mixed in a well of a 96 well plate. At 30 min intervals, the reaction was arrested by glycine-NaOH solution and an absorbance measurement was acquired from the product formation of pNP which gave a yellow color. Each experiment was repeated three times, and error bars are +/−1 SD.
Protein expression. The plasmid containing the cloned BGL1 gene was first transformed into E. coli BL21(DE3) for recombinant expression. The transformed cells were inoculated overnight in a 5 mL pre-culture. The following day, the culture was diluted to OD 0.05 in a 100 mL starter culture and grown at 37° C. with 200 rpm shaking. Upon reaching OD 0.4, expression of the BGL1 gene was induced by addition of 1 mM IPTG and induction was carried out under the same growth conditions for 8 hours. […]
BGL off-chip assay. […] Absorbance at 405 nm was immediately acquired after stopping each reaction on a TECAN infinite M200 plate reader with the following settings: 9 nm bandwidth, single reads per well, 25 flashes per reading, and 0 ms of settle time. Reactions with absorbance units >4 were diluted and the final absorbance was calculated from the diluted sample. […]

[5] = On-chip beta-glucosidase colorimetric assay, blue channel pixel intensity (image-based feedback system); format: biochemical, Thermobaculum terrenum
Protocol: The assay on-chip included three different solutions loaded onto the DMF device reservoirs. First, a unit droplet of cell lysate was dispensed and actuated to each of the four assay mixing areas (see FIG. 5 for DMF design) using a starting voltage of 230 VRMS at 15 kHz. The lysate was prepared from a colony of BL21(DE3) transformed with a plasmid containing beta-glucosidase (BGL) gene (see FIG. 6 and FIG. 7 for plasmid map and sequence (SEQ ID NO: 1) respectively) that was grown at 37° C. and induced at 0.4 O.D (˜1.75 h starting at 0.1 O.D). The assay started by the addition of a droplet containing substrate to a droplet of cell lysate. The substrate solution contained 50 mM sodium citrate at pH 7.0 and 4 mM 4-nitrophenyl beta-D-glucopyranoside (MUG). The reactions were incubated at different times (0, 40, 80, and 120 min) and arrested by the addition of a unit droplet of 0.3 M Glycine-NaOH on the assay areas on the device. Solutions contained 0.05% final concentration of F-68 Pluronics. […]
The typical model for analyzing kinetics of a beta-glucosidase enzyme is to use a chromogenic model substrate para-nitrophenyl-beta-glucoside (pNPG) that will produce glucose and para-nitrophenol upon hydrolysis (FIG. 14). The liberation of para-nitrophenol (pNP) gives a yellow color product which can be monitored by an image-based feedback system. […]

In the case of CNC(=O)c1cc(Oc2ccc(NC(=O)Nc3ccc(Cl)c(C(F)(F)F)c3)cc2)ccn1 [sorafenib, sorafenib tosylate], the basal viability level [1] is reported as roughly 25%, the IC50 ([2]; NCI-H1299, read-out: inhibitory sorafenib concentration achieving half-maximal viability level (IC50), on-chip, cells transfected with pCRISPR targeting RAF1, fitted sigmoid curve) is reported as 13.2 µM and the IC50 ([2]; NCI-H1299, read-out: inhibitory sorafenib concentration achieving half-maximal viability level (IC50), on-chip, control (guide targeting eGFP), fitted sigmoid curve) is reported as 7.54 µM. The “sensitivity in the linear micromolar range” value ([2]; edited H1299 cells with CRISPR-mediated RAF1 targeting) was 7 to 35 µM and the “fold reduction of IC50 with pCRISPR targeting RAF1 versus control” value ([2]; on-chip) was roughly 1.8 fold.

In the case of CC(C)S[C@@H]1O[C@H](CO)[C@H](O)[C@H](O)[C@H]1O [IPTG, isopropyl beta-D-1-thiogalactopyranoside], the “IPTG concentration at which protein production was constant (comparable to basal levels)” value [3] is reported as less than 30 µM and the “IPTG concentration giving highest protein production” value ([3]; induced at OD 0.4) is reported as “above 200 micromolar”.

B1: beta-glucosidase: β-glucosidase (BGL) from Thermobaculum terrenum in BL21(DE3) cell lysate, plasmid pET_BGL1 of Example 1 (protein, listed as Thermobaculum terrenum)
chain: MKHLVTTLLFGLVFAAAVRAQSSRVDSLLAAMTLAEKISLLHGAIDPTGEAGAGYVPGVPRLGIPAMRLTDGPAGIRTRHPATALPAPVALAASFDPELAYRYGHVMGIEGRARRHEVLLSPMVNIVRVPEAGRNFETFSEDPLLSAEMVAAEVRGIQDAGMMATVKHYVANNFENDRMRVNVVVDERTLREIYLPGFEAAIKAGAAAVMCAYNRVNGPYACDNEMLLTDILRDEWGFEGWVMTDWFAGHSLESLVRGLDQEMPGYTIPFSSPDMPLAPAVFADSLLAAVESGRIDEAYVDRAVRRILVQMEQFGLLDGESTPPEINIEAHAAVAREVAEAGAVLLRNENQTLPLSERDLQHLVVIGPTATRPLIGGGGSSRVQPFRTTSTLAALQELAGPQAQIRYVPGIDLDGMPVPSSALRTPDGQPGLLRQGADGTTQVDAQLDFTGERALPPGSQWTWTGTLTAPTAGVYELKLQTAGGVGTLSIDGQPVLRTGMFFSDASLIPTADSLENATYRIELQAGQQLSLTVQISGQVPSLPFLPAGQNPVQVRLAWVTPERRAAFLEEAAEAARAAHAAIVFVYEEGTEGRDRETLALRPDQDALVEAVAAANPRTTVVMNVGAPTLMPWAERVGAILLMWYPGQEGGWATADVLLGRANPAGRLPVTFPRRAEDAPTASPERYPGVDLTARYDEGIFVGYRWYDAQQIEPLFPFGHGLSYTTFAYENLRVEPDGDGFVVRFVVRNTGDRAGSDVPQVYLGPPENPPVPMAVRQLVGFRRVTLAPGEAQEVTVRIDGRALSYWSVEDHAWVKATGRRTLYVGASARDLRLQTEIDVQ
For B1, the “first order rate constant kPLATE” value [4] was 0.504 h⁻¹ and the “first order rate constant kDMF” value [5] was 4.64e-05 s⁻¹.
